# Data reported in patent US11401255B2, “Small molecule activators of Parkin enzyme function” (Mayo Foundation for Medical Education and Research, priority 2016, dated 2022).
# Read-outs that look alike come from different tables or passages of the source.
# Assays:
# [1] = test system: TA 1535
# Excerpt: The test used amino acid-dependent strains of Salmonella typhimurium and Escherichia coli to detect point mutations which involved substitution, addition or deletion of one or a few DNA base pairs. Point mutations were introduced in the histidine (Salmonella typhimurium) or the tryptophan (Escherichia coli) operon, making the tester strains incapable of producing these amino acids. The test detected mutations that revert the mutations present in the bacteria, restoring the functional capability to synthesize histidine or tryptophan. The revertant bacteria were detected by the ability to grow in the absence of the amino acid required by the parent test strain. A mutagenic potential of a tested compound was assessed by exposing these bacterial strains to different concentrations of the compounds and estimating number of revertant colonies grown in the absence (trace quantities) of the amino acid.
# DMSO was used as the negative control.
# For each experiment, tester strain cultures were grown overnight in Oxoid nutrient broth #2 at 37° C. with shaking at 235 rpm to a density of 1-2×10^9 colony forming units/mL (OD540˜2).
# The tester strain (10 μL of night culture) was mixed with the test agent (10 µL of the DMSO stock) and GM liquid medium (30 μL). The obtained mixture was incubated at room temperature for 5 min in a sterile 1.5 mL tube. Then, to the tube was added 200 μL of molten top agar stored at 44° C. to prevent solidifying. After mixing with a pipette, the mixture was poured onto the surface of a GM agar plate (2.0 mL of GM agar per plate). After solidifying the top agar, the plate was inverted and incubated at 37° C. for 48 hours. Then, results were expressed as number of revertant colonies per plate.
# [2] = test system: Caco-2 cells; assay: Caco-2 A-B permeability assay; type: in vitro ADME; conditions: A-B, 90 min, pH=7.4
# Description: (§1) Caco-2 cells were cultivated in 75 cm^2 flasks to 80-90% of confluence according to the ATCC and Millipore recommendations (Millipore protocol note PC1060EN00P) in a humidified atmosphere at 37° C. and 5% CO2. Cells were detached with Trypsin/EDTA solution and re-suspended in the cell culture medium to a final concentration of 2×10^5 cells/mL. 500 μL of the cell suspension was added to each well of an HTS 24-multiwell insert system and 35 mL of prewarmed complete medium was added to the feeder tray. Caco-2 cells were incubated in the multiwell insert system for 10 days before the transport experiments. The medium in the filter plate and feeder tray was changed every other day. After 10 days of cell growth, the integrity of the monolayer was verified by measuring the transepithelial electrical resistance (TEER) for every well using the Millicell-ERS system ohm meter. […] The 24-well insert plate was removed from its feeder plate and placed in a new sterile 24-well transport analysis plate. The medium was aspirated and inserts washed with PBS.
# (§2) To determine the rate of drug transport in apical (A) to basolateral (B) direction, 300 μL of the test compound solution in buffer (HBSS, 5.6 mM glucose, 10 mM HEPES, pH=7.4) was added into the filter wells and 1000 μL of the same buffer was added to wells in the transport analysis plate. The plates were incubated for 90 min. at 37° C. with shaking at 50 rpm. 75 μL aliquots were taken from the apical and basolateral compartment for LC-MS/MS analysis. All samples for LC-MS/MS analysis were extracted by acetonitrile (×2 volume) followed by protein sedimentation by centrifuging at 10000 rpm for 10 minutes. Supernatants were analyzed using the HPLC system coupled with a tandem mass spectrometer.
# (§3) The apparent permeability (Papp) was calculated for the Caco-2 permeability assay using the following equation: Papp=(VA/((Area)×(Time))×([drug]acc/[drug]initial,d), where: […]
# [3] = Caco-2 A-B permeability assay; type: in vitro ADME; conditions: human
# Description: as §1, §2, §3
# [4] = Caco-2, pH 7.4, A-B, read-out: Permeability (individual replicates 1, 2)
# [5] = Caco-2, pH 7.4, A-B, read-out: Permeability Mean
SMILES,"Fold increase (over baseline) ([1]; TA 1535, 50 μM)","Mean ± SD ([1]; TA 1535, 50 μM)","Fold increase (over baseline) ([1]; TA 1535, 100 μM)","Mean ± SD ([1]; TA 1535, 100 μM)","Fold increase (over baseline) ([1]; TA 1535, 200 μM)","Mean ± SD ([1]; TA 1535, 200 μM)","Permeability (individual replicates 1, 2) [2]","Papp at 90 min [3, 4] [×10⁻⁶ cm/s]","Papp at 90 min [3, 5] [×10⁻⁶ cm/s]","mutagenic activity ([1]; TA 1535, 200 μM)","Papp at 90 min ([3]; Caco-2, A-B, pH=7.4, read-out: Permeability (individual replicates 1, 2)) [×10⁻⁶ cm/s]"
O=C(Cn1cnc2c1CCCC2)Nc1ccc(-c2ccccc2)cc1 [Compound 1],0.23,1 ± 0 revertant colonies per plate,0,0 ± 0 revertant colonies per plate,0,0 ± 0 revertant colonies per plate,12.1 10^−6 cm/s,8.3,10.2,–,–
CC(C)c1nccn1CC(=O)Nc1ccc(-c2ccccc2)cc1 [Compound 2],0,0 ± 0 revertant colonies per plate,0.68,3 ± 0 revertant colonies per plate,0.23,1 ± 0 revertant colonies per plate,18.5 10^−6 cm/s,17.9,18.2,–,–
CC(C)(C)Sc1ccc(NC(=O)Cn2ccnc2)cc1 [Compound 3],0.34,1.5 ± 0.7 revertant colonies per plate,0,0 ± 0 revertant colonies per plate,>34,>150 revertant colonies per plate,41.7 10^−6 cm/s,39.5,40.6,mutagenic activity,–
O=C(Cn1ccnc1-c1ccccn1)Nc1ccc(-c2ccccc2)cc1 [Compound 4],0.23,1 ± 0 revertant colonies per plate,0.34,1.5 ± 0.7 revertant colonies per plate,0,0 ± 0 revertant colonies per plate,–,14.6,15.3,–,15.9
Cc1nc2c(c(N3CCCN(Cc4ccccc4)CC3)n1)CCCC2 [Compound 31],0.57,2.5 ± 2.12 revertant colonies per plate,0.23,1 ± 0 revertant colonies per plate,0.57,2.5 ± 0.7 revertant colonies per plate,45.2 10^−6 cm/s,52.8,49,–,–
